Experimental data taken from US6806230B1, “Pyrimidine derivatives and herbicides containing them” (Kumiai Chemical Industry Co., Ltd., priority 1999, dated 2004).

What was measured:
Type in all cases: in vivo
[1] = test system: barnyard grass (Eo); assay: Test Example 1: herbicidal effects by flooded paddy field treatment; design: herbicidal effects, Eo (barnyard grass):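 0-5 growth inhibition grade; 5 = over 90%; 4 = 70-90%; 3 = 50-70%; 2 = 30-50%; 1 = 10-30%; 0 = under 10%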; conditions: dose 100 g active ingredient per 10 ares, examined on the 21st day after treatment, standards of Table 44
Method: (§1) In a 100 cm^2 plastic pot, paddy field soil was filled and paddled. Then, seeds of barnyard grass (Eo) and monochoria (Mo) were sown, and water was introduced to a depth of 3 cm. Next day, a wettable powder prepared in accordance with Formulation Example 1 was diluted with water and dropwise applied to the water surface. The dose was 100 g of the active ingredient per 10 ares. Thereafter, cultivation was carried out in a green house, and on the 21st day after the treatment, the herbicidal effects were examined in accordance with the standards as identified in Table 44.

[2] = test system: monochoria (Mo); assay: as above; design: herbicidal effects, Mo (monochoria):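 0-5 growth inhibition grade; 5 = over 90%; 4 = 70-90%; 3 = 50-70%; 2 = 30-50%; 1 = 10-30%; 0 = under 10%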; conditions: dose 100 g active ingredient per 10 ares, examined on the 21st day after treatment, standards of Table 44
Method: as §1

[3] = test system: barnyard grass (Ec); assay: Test Example 2: herbicidal effects by upland soil treatment; design: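 0-5 growth inhibition grade; 5 = over 90%; 4 = 70-90%; 3 = 50-70%; 2 = 30-50%; 1 = 10-30%; 0 = under 10%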; conditions: dose 100 g active ingredient per 10 ares, examined on the 21st day after treatment
Method: In a 80 cm^2 plastic pot, upland soil was filled, and seeds of barnyard grass (Ec) and green foxtail (Se) were sown and covered with soil. A wettable powder prepared in accordance with Formulation Example 1 was diluted with water and uniformly applied to the soil surface by means of a small size spray at a rate of 100 l per 10 ares, so that the dose of the active ingredient would be 100 g per 10 ares. Thereafter, cultivation was carried out in a green house, and on the 21st day after the treatment, the herbicidal effects were examined in accordance with the standards as identified in Table 44.

Row | Structure (SMILES) | herbicidal effects, Eo (barnyard grass) [1] | herbicidal effects, Mo (monochoria) [2] | Ec (herbicidal effects, index) [3]
1 | CC(NC(=O)N(C)C(c1cncnc1C(F)(F)F)C(C)C)c1ccccc1 (mixture of isomers) [1-535] | 5 | 5 | 5
2 | Cc1ccccc1C(c1cncnc1C(F)(F)F)N(C)C(=O)Cc1ccccc1 (racemic) [1-550] | 5 | 5 | 5
3 | CC(C)C(c1cncnc1C(F)(F)F)N(C)C(=O)C(=O)c1ccc(Cl)cc1 (racemic) [1-335] | 5 | 5 | 5
4 | C#CCN(C(=O)Cc1ccc(C)cc1)C(c1cncnc1CC)C(C)C (racemic) [1-561] | 5 | 5 | 5
5 | CON=Cc1ncncc1C(C(C)C)N(C)C(=O)Cc1ccc(C)cc1 (racemic) [1-499] | 5 | 5 | 5
6 | CN(C(=O)Cc1ccc(F)cc1F)C(c1ccccc1)c1cncnc1C(F)(F)F (racemic) [Compound 1-274] | 5 | 5 | 5
7 | CN(C(=O)Cc1ccc(C(F)(F)F)cc1)C(c1cncnc1C(F)(F)F)C(C)(C)C (racemic) [1-305] | 5 | 5 | 5
8 | CN(C(=O)Cc1ccc(Cl)cc1F)C(c1cncnc1C(F)(F)F)C(C)(C)C (racemic) [Compound 1-249] | 5 | 5 | 5
9 | CC(C)C(c1cncnc1C(F)(F)F)N(C)C(=O)N(C)c1ccsc1 (racemic) [2-63] | 5 | 5 | 5
10 | CC(C)C(c1cncnc1C(F)(F)Cl)N(C)C(=O)Oc1ccc([N+](=O)[O-])cc1 (racemic) [1-640] | 5 | 5 | 4
11 | CN(C(=O)Cc1ccc(F)cc1F)C(c1cncnc1C(F)(F)F)C(C)(C)C (racemic) [Compound 1-273] | 5 | 5 | 5
12 | CC(C)c1ncncc1C(C(C)C)N(C)C(=O)N(C)c1ccccc1 (racemic) [1-327] | 5 | 5 | 5
13 | CCOC(=O)CN(C(=O)Cc1ccccc1)C(c1cncnc1C(F)(F)F)C(C)C (racemic) [1-476] | 5 | 5 | 5
14 | CC(C)c1ncncc1C(C(C)C)N(C)C(=O)Cc1ccsc1 (racemic) [2-24] | 5 | 5 | 5
15 | CCC(c1cncnc1C(C)C)N(C)C(=O)Cc1ccc(Cl)cc1 (racemic) [1-438] | 5 | 5 | 5
16 | CC(C)C(c1cncnc1-c1ccccc1)N(C)C(=O)Cc1ccc(F)cc1 (racemic) [1-323] | 5 | 5 | 4
17 | CC(C)C(c1cncnc1C(F)(F)Cl)N(C)C(=S)Oc1ccccc1 (racemic) [1-641] | 5 | 5 | 5

Row | Structure (SMILES) | herbicidal effects, Eo (barnyard grass) [1] | herbicidal effects, Mo (monochoria) [2] | Ec (herbicidal effects, index) [3]
18 | CCN(C(=O)Cc1ccsc1)C(c1cncnc1C(F)(F)F)C(C)C (racemic) [2-10] | 5 | 5 | 5
19 | CN(C(=O)Cc1cccc(F)c1)C(c1ccccc1)c1cncnc1C(F)(F)F (racemic) [Compound 1-266] | 5 | 5 | 5
20 | Cc1ccc(CC(=O)N(C)C(c2cncnc2C(F)(F)F)C2(C)CC2)s1 (racemic) [2-59] | 5 | 5 | 5
21 | COc1ccc(N(C)C(=O)N(C)C(c2cncnc2C(F)(F)F)C(C)C)cc1 (racemic) [1-460] | 5 | 5 | 5
22 | CC(C)CC(c1cncnc1C(F)(F)F)N(C)C(=O)Cc1ccsc1 (racemic) [2-52] | 5 | 5 | 5
23 | CSCC(c1cncnc1C(F)(F)F)N(C)C(=O)Cc1ccc(Cl)cc1 (racemic) [1-414] | 5 | 5 | 4
24 | CC(C)C(c1cncnc1C=NO)N(C)C(=O)Cc1ccc(Cl)cc1 (racemic) [1-502] | 5 | 5 | 4
25 | CN(C(=O)Cc1ccc(F)cc1)C(c1ccc(F)cc1F)c1cncnc1C(F)(F)F (racemic) [1-555] | 5 | 5 | 5
26 | CC(C)C(c1cncnc1C=O)N(C)C(=O)Cc1ccc(Cl)cc1 (racemic) [1-524] | 5 | 5 | 5
27 | CCC(C)C(c1cncnc1C(F)(F)F)N(C)C(=O)Cc1ccc(C(F)(F)F)cc1 (mixture of isomers) [1-307] | 5 | 5 | 5
28 | CC(C)C(c1cncnc1C(F)(F)F)N(C)C(=O)Cc1cccs1 (racemic) [2-6] | 5 | 5 | 5
29 | CC(C)C(c1cncnc1C(F)(F)F)N(C)C(=O)N(C)C1CCCCC1 (racemic) [2-72] | 5 | 5 | 5
30 | CCc1ncncc1C(C(C)C)N(C)C(=O)Cc1ccc(F)cc1 (racemic) [1-433] | 5 | 5 | 5
31 | CC(C)C(c1cncnc1C(F)(F)F)N(C)C(=O)C(=O)c1ccccc1 (racemic) [1-328] | 5 | 5 | 5
32 | CC(C)c1ncncc1C(C(C)C)N(C)C(=O)N(C)c1ccc(F)cc1 (racemic) [1-429] | 5 | 5 | 5
33 | C=CCN(C(=O)Cc1ccccc1)C(c1cncnc1C(F)(F)F)C(C)C (racemic) [1-518] | 5 | 5 | 5
